According to ChEMBL document CHEMBL3621049, “Imidazole derivatives show anticancer potential by inducing apoptosis and cellular senescence” (2014):
Calls of active or inactive are those of the source. The calls are words filed in the database; no cut-off is given here.

Assays:
[1] = tested on: A549; test: Cell cycle arrest in human A549 cells assessed as accumulation at G0/G1 phase at 5 uM after 48 hrs using propidium iodide staining by flow cytometer analysis (reference value: 79.34%); assay type: functional
[2] = tested on: MDA-MB-231; test: Growth inhibition of human MDA-MB-231 cells at 10 uM by sulforhodamine B assay; assay type: functional, cell-based
[3] = tested on: SW-620; test: Growth inhibition of human SW620 cells at 10 uM by sulforhodamine B assay; assay type: functional, cell-based
[4] = tested on: SF-268; test: Growth inhibition of human SF268 cells at 10 uM by sulforhodamine B assay; assay type: functional, cell-based
[5] = tested on: A549; test: Cell cycle arrest in human A549 cells assessed as accumulation at S phase at 20 uM after 48 hrs using propidium iodide staining by flow cytometer analysis (reference value: 6.67%); assay type: functional
[6] = tested on: A549; test: Cell cycle arrest in human A549 cells assessed as accumulation at G2/M phase at 10 uM after 48 hrs using propidium iodide staining by flow cytometer analysis (reference value: 13.02%); assay type: functional
[7] = tested on: HCT-116; test: Growth inhibition of human HCT116 cells at 10 uM by sulforhodamine B assay; assay type: functional, cell-based
[8] = tested on: NCI-H460; test: Growth inhibition of human NCI-H460 cells at 10 uM by sulforhodamine B assay; assay type: functional, cell-based
[9] = tested on: SNB-75; test: Growth inhibition of human SNB75 cells at 10 uM by sulforhodamine B assay; assay type: functional, cell-based
[10] = tested on: NCI/ADR-RES; test: Growth inhibition of human NCI/ADR-RES cells at 10 uM by sulforhodamine B assay; assay type: functional, cell-based
[11] = tested on: OVCAR-5; test: Growth inhibition of human OVCAR5 cells at 10 uM by sulforhodamine B assay; assay type: functional, cell-based
[12] = tested on: MDA-MB-468; test: Growth inhibition of human MDA-MB-468 cells at 10 uM by sulforhodamine B assay; assay type: functional, cell-based
[13] = tested on: COLO 205; test: Growth inhibition of human COLO205 cells at 10 uM by sulforhodamine B assay; assay type: functional, cell-based
[14] = tested on: A549; test: Cell cycle arrest in human A549 cells assessed as accumulation at sub-G1 phase at 20 uM after 48 hrs using propidium iodide staining by flow cytometer analysis (reference value: 0.96%); assay type: functional
[15] = tested on: SR; test: Growth inhibition of human SR cells at 10 uM by sulforhodamine B assay; assay type: functional, cell-based
[16] = tested on: A549; test: Inhibition of colony formation in human A549 cells after 14 days using crystal violet staining by soft agar assay; assay type: functional, cell-based
[17] = tested on: NCI-H23; test: Growth inhibition of human NCI-H23 cells at 10 uM by sulforhodamine B assay; assay type: functional, cell-based
[18] = tested on: LOX IMVI; test: Growth inhibition of human LOXIMVI cells at 10 uM by sulforhodamine B assay; assay type: functional, cell-based
[19] = tested on: SK-OV-3; test: Growth inhibition of human SKOV3 cells at 10 uM by sulforhodamine B assay; assay type: functional, cell-based
[20] = tested on: CCRF-CEM; test: Growth inhibition of human CCRF-CEM cells at 10 uM by sulforhodamine B assay; assay type: functional, cell-based
[21] = tested on: A549; test: Cell cycle arrest in human A549 cells assessed as accumulation at S phase at 5 uM after 48 hrs using propidium iodide staining by flow cytometer analysis (reference value: 6.67%); assay type: functional
[22] = tested on: KM12; test: Growth inhibition of human KM12 cells at 10 uM by sulforhodamine B assay; assay type: functional, cell-based
[23] = tested on: ACHN; test: Growth inhibition of human ACHN cells at 10 uM by sulforhodamine B assay; assay type: functional, cell-based
[24] = tested on: DU-145; test: Growth inhibition of human DU145 cells at 10 uM by sulforhodamine B assay; assay type: functional, cell-based
[25] = tested on: CAKI-1; test: Growth inhibition of human Caki1 cells at 10 uM by sulforhodamine B assay; assay type: functional, cell-based
[26] = tested on: U-251; test: Growth inhibition of human U251 cells at 10 uM by sulforhodamine B assay; assay type: functional, cell-based
[27] = tested on: A549; test: Cell cycle arrest in human A549 cells assessed as accumulation at S phase at 10 uM after 48 hrs using propidium iodide staining by flow cytometer analysis (reference value: 6.67%); assay type: functional
[28] = tested on: HT-29; test: Growth inhibition of human HT-29 cells at 10 uM by sulforhodamine B assay; assay type: functional, cell-based

COc1ccc(-c2nc(-c3ccccn3)c(-c3ccccn3)n2CC(C)C)cc1OC1CCCC1
Activity [1]: 89.38% | growth inhibition (GI) [2]: Active | growth inhibition (GI) [3]: Active | growth inhibition (GI) [4]: Active | Activity [5]: 6.63% | Activity [6]: 6.73% | growth inhibition (GI) [7]: Active | growth inhibition (GI) [8]: Active | growth inhibition (GI) [9]: Active | growth inhibition (GI) [10]: Active | growth inhibition (GI) [11]: Active | growth inhibition (GI) [12]: Active | growth inhibition (GI) [13]: Active | Activity [14]: 19.34% | growth inhibition (GI) [15]: Active | inhibition [16]: Dose-dependent effect | growth inhibition (GI) [17]: Active | growth inhibition (GI) [18]: Active | growth inhibition (GI) [19]: Active | growth inhibition (GI) [20]: Active | Activity [21]: 3.47% | growth inhibition (GI) [22]: Active | growth inhibition (GI) [23]: Active | growth inhibition (GI) [24]: Active | growth inhibition (GI) [25]: Active | growth inhibition (GI) [26]: Active | Activity [27]: 9.95% | growth inhibition (GI) [28]: Active
